Series [1] concerns MIA PaCa-2 pancreatic cancer cell line. Nature of the series: MTT cell viability assay. In kind it is cell-based. Conditions: Homo sapiens, read-out: IC50 against MIA PaCa-2 cells. As for the experimental part:
To evaluate the cytotoxicity and combination effects of rapamycin and silymarin as well as free irinotecan, we performed the 3-(4,5-dimethylthiazol-2-yl)-2,5-diphenyl-2H-tetrazolium bromide (MTT) assay by using the MIA PaCa-2 pancreatic cancer cell line. Briefly, the cells were seeded in a 96-well plate at a density of 3 × 10^4 cells/well and incubated at 37 °C with 5% CO2 for 24 h. After 24 h, the cells were treated with different concentrations of free irinotecan (0–300 µM), rapamycin (0–300 µM), SN38 (0–300 nM), and silymarin (0–1000 µM). To determine the combination effect, the cells were treated with different ratios of irinotecan/rapamycin and SN38/rapamycin (1/0.3, 1/0.5, 1/1, and 1/2) and irinotecan/silymarin and SN38/silymarin (1/1 and 1/2). All the cells were incubated with the drugs for 24–48 h. Then, the MTT reagent and dimethyl sulfoxide were added for the formation and the dissolution of purple formazan crystals. The absorbance of each well was measured at 550 nm on a Cytation 3 cell imaging multimode reader (BioTek, Winooski, VT, USA). The half-maximal inhibitory concentration (IC50) and combination index (CI) of the drugs were calculated using CompuSyn Sofware (Paramus, NJ, USA) through the Chou–Talalay method. In the Chou–Talalay method, the CI values of <0.9, >1.1, and 0.9–1.1 indicated synergistic, antagonistic, and additive effects, respectively. Each data point was the mean of at least six individual experiments.

Series [2] is described as follows: In vitro release from LBSNENP, USP Apparatus 2 dissolution. Format: physicochemical. Conditions: endpoint (60 min). As for the experimental part:
The contents of irinotecan and rapamycin in LBSNENPir and LBSNENPra were detected through HPLC. To determine the irinotecan content, we used the Waters 600E HPLC system with the SunFire C18 column (4.6 mm × 250 mm I.D., 5 μm; Waters). The mobile phase consisted of 10 mM phosphate buffer (pH 3.0)/acetonitrile/tetrahydrofuran (65/35/2 v/v), the flow rate was 0.8 mL/min, the column was maintained at 40 °C, the injection volume was 20 µL, and the fluorescence detector was set at the excitation and emission wavelengths of 370 and 470 nm, respectively. To determine the rapamycin content, we used the JASCO HPLC system with the Inersil ODS-2 C18 column (4.0 mm × 150 mm I.D., 5 μm). The mobile phase was a mixture of acetonitrile and water (20/80 v/v), the flow rate was 1.0 mL/min, the column was maintained at 55 °C, the injection volume was 100 µL, and the UV detector was set at the wavelength of 278 nm. Each data point came from the mean of at least three individual trials. The assay method was also well validated before. […]
The in vitro release of irinotecan and rapamycin from LBSNENP was examined using the dissolution method on United States Pharmacopeia (USP) Apparatus 2 (VK7000, Vankel, UK). […] The contents of irinotecan and rapamycin were determined through HPLC as described in the earlier text. […]

Read-outs that look alike come from different tables or passages of the source.

As a reminder, the IC50 is the midpoint of a concentration-inhibition curve.

For the compound `CO[C@H]1C[C@@H]2CC[C@@H](C)[C@@](O)(O2)C(=O)C(=O)N2CCCC[C@H]2C(=O)O[C@H]([C@H](C)C[C@@H]2CC[C@@H](O)[C@H](OC)C2)CC(=O)[C@H](C)/C=C(\C)[C@@H](O)[C@@H](OC)C(=O)[C@H](C)C[C@H](C)/C=C/C=C/C=C/1C` [rapamycin, Rapamycin], the IC50 stood at 2.98 ± 0.97 µM in series [1] (MIA PaCa-2, 24 h) and 3.88 ± 1.17 µM in series [1] (MIA PaCa-2, 48 h). Moreover, the “dissolution percentage of raw rapamycin powder at the endpoint” value in series [2] (0.4% sodium lauryl sulfate solution, 37 °C, 100 rpm) is on record as about 32%.
As for `CCc1c2c(nc3ccc(OC(=O)N4CCC(N5CCCCC5)CC4)cc13)-c1cc3c(c(=O)n1C2)COC(=O)[C@]3(O)CC` [irinotecan, Irinotecan], the IC50 is 4.78 ± 9.42 µM in series [1] (MIA PaCa-2, 24 h) and 12.2 ± 4.56 µM in series [1] (MIA PaCa-2, 48 h). Also, the “dissolution percentage of raw irinotecan powder at the endpoint” value in series [2] (buffer pH 1.2, 37 °C, 50 rpm) was “approximately 63%”.
